Test results as given in PMC7902338 (Pharmaceutical Research, 2021).
Like-named read-outs stand apart in the source and are kept apart here.

Tests used:
[1] = mean ± SD
Protocol: Blood was centrifuged to obtain plasma, the liver and the kidneys were removed and urine was collected. Proteins were precipitated by the addition of acetonitrile (1 μL/μL plasma; 1000 μL for the liver, 200 μL for the kidneys and 0.5 μL/μL urine). All solutions were vortexed and centrifuged. […] Detection was performed by placing the TLC plates on multisensitive phosphor screens (PerkinElmer Life Sciences, Waltham, MA). The screens were scanned at 300 dpi resolution using a PerkinElmer Cyclone® Plus Phosphor Imager (Perkin-Elmer Life Sciences).
(§1) PET imaging was performed under isoflurane/air anesthesia and animals were warmed throughout the experiment while constantly monitoring body temperature and respiratory rate. A microPET Focus220 scanner (Siemens Medical Solutions, Knoxville, TN, USA) was used for PET imaging. […] List mode data were acquired with a timing window of 6 ns and an energy window of 250–750 keV. At the end of the PET scans, blood was collected from the retro-bulbar plexus and animals were killed by cervical dislocation. Blood was centrifuged to obtain plasma and aliquots of blood and plasma were counted for radioactivity in a gamma counter.

[2] = test system: cation transporters (OCTs, MATEs); test: [^11C]Metoclopramide PET in C57BL/6 wild-type mice without and with unlabeled metoclopramide, cimetidine or sulpiride
Protocol: as §1
Using the medical image data examiner software AMIDE ([33]), the left ventricle of the heart (image-derived arterial blood curve), brain, liver, left kidney and urinary bladder were manually outlined as regions of interest on the PET images, guided by representative magnetic resonance images obtained for a few animals on a 1-T benchtop MR scanner (ICON; Bruker BioSpin GmbH), to derive concentration-time curves expressed in units of percent injected dose per mL (%ID/mL).
The area under the concentration-time curves (AUC, %ID/mL x min) was calculated for each region of interest using Prism 8 Software (GraphPad, La Jolla, CA, USA). […] VE is the y-intercept of the integration plot. CLint,urine was obtained by performing linear regression analysis of a plot of Xint,urine versus AUC0-t,kidney and calculating the slope of the regression line.
The plasma concentration was obtained by multiplying the concentration in the left ventricle of the heart by the plasma/blood radioactivity ratio, determined from the blood sample collected at the end of the PET scan.

mouse MATEs = conditions: read-out: inhibition constant Ki; cited from earlier work
mouse OCTs = conditions: read-out: inhibition constant Ki; cited from earlier work
CYP2D6 [3] = conditions: cimetidine ref 39; metoclopramide ref 10, 11; cited from earlier work
[4] = single oral or intravenous dose; cited from earlier work
CYP2D6 [5] = test system: CYP2D6; design: method as in PMID 21740075; conditions: orally administered, humans, estimated; cited from earlier work
[6] = test system: human P-glycoprotein (P-gp/ABCB1); conditions: cited from earlier work
human OCT1 = conditions: cited from earlier work
[7] = cited from earlier work
[8] = C57BL/6 female mice, baseline, 15 min after radiotracer injection
[9] = C57BL/6 female mice, cimetidine (150 mg/kg), 15 min
[10] = FVB male/female Slc22a1/2^(−/−) mice, 15 min
[11] = FVB male/female wild-type mice, 15 min
[12] = integration plot 0.4 to 4 min, range over baseline and treatment groups, C57BL/6 mice

## CCN(CC)CCNC(=O)c1cc(Cl)c(N)cc1O[11CH3] [[^11C]metoclopramide]
[1]; [8]
  Percentage of unchanged [^11C]metoclopramide in kidney: 64 ± 6%
  Percentage of unchanged [^11C]metoclopramide in urine: 29 ± 4%
[1]; [9]
  Percentage of unchanged [^11C]metoclopramide in kidney: 96 ± 2 %
  Percentage of unchanged [^11C]metoclopramide in urine: 87 ± 4 %
[1]; C57BL/6 female mice, co-administration of unlabeled metoclopramide (5 mg/kg), 15 min
  Percentage of unchanged [^11C]metoclopramide in kidney: 74 ± 4%
[1]; C57BL/6 female mice, sulpiride (25 mg/kg), 15 min
  Percentage of unchanged [^11C]metoclopramide in urine: 36 ± 5%
[1]; [10]
  Percentage of unchanged [^11C]metoclopramide in kidney: 72 ± 8%
  Percentage of unchanged [^11C]metoclopramide in urine: 48 ± 10%
[1]; [11]
  Percentage of unchanged [^11C]metoclopramide in kidney: 70 ± 20%
  Percentage of unchanged [^11C]metoclopramide in urine: 64 ± 22%
[2]; C57BL/6 wild-type mice, assuming average mouse organ volumes from literature
  Maximum amount of radioactivity in the kidneys: approximately 17 % of the injected dose
[2]; C57BL/6 wild-type mice, i.v. microdose
  Time to maximum concentration of radioactivity in the kidneys and liver: ≤ 5 min
[2]; end of the 90-min PET scan
  Amount of radioactivity excreted into the urinary bladder: approximately 45 % of the injected dose
[2]; [12]
  kuptake,kidney (rate constant for uptake of total radioactivity from blood into the kidneys): 0.5–1 mL/min/mL kidney
  kuptake,liver (rate constant for uptake of total radioactivity from blood into the liver): 0.2–0.6 mL/min/mL liver
[2]; the different investigated treatments vs baseline, wild-type mice
  Decrease of urinary excretion: up to 3.8 fold

## CN/C(=N/CCSCc1nc[nH]c1C)NC#N [cimetidine]
Mouse MATEs
  Ki: 1 to 4 µM
Mouse OCTs
  Ki: 54 to 143 µM
CYP2D6 [3]
  CYP2D6 inhibition: potent

## CCN(CC)CCNC(=O)c1cc(Cl)c(N)cc1OC [metoclopramide]
[4]
  Fraction of dose excreted unchanged in urine: Approximately 20%
CYP2D6 [5]
  Share of total clearance accounted for by CYP2D6 metabolism: 44%
[6]
  Substrate of human P-gp: weak substrate
Human OCT1; human OCT1 transfected cell line
  Share of cellular uptake related to OCT1 activity: 45%
Human OCT1; in vitro
  Substrate of human OCT1: substrate
CYP2D6 [3]
  CYP2D6 inhibition: potent inhibitor
[7]
  pKa: 9.71
[7]; physiological pH
  Fraction in protonated form: more than 99%
